According to ChEMBL document CHEMBL1201862, “PubChem BioAssay data set” (2004):
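Test compounds were applied to cells in 96-well plates for 48 hours at 5 doses. GI50 is the concentration that inhibits growth by half.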 Activity calls are given as the source filed them. No stated cut-off is given here; in the data, active = GI50 up to about 1.1 µM and inactive = higher.

How the values were obtained:
Assay in all cases: NCI tumour cell line growth inhibition, 48 h
SNB-75 = system: SNB-75
KM12 = system: KM12
NCI-H460 = system: NCI-H460
OVCAR-3 = system: OVCAR-3
SK-MEL-28 = system: SK-MEL-28
BT-549 = system: BT-549
SNB-19 = system: SNB-19
MDA-N = system: MDA-N
IGROV-1 = system: IGROV-1
OVCAR-5 = system: OVCAR-5
U-251 = system: U-251
K562 = system: K562
DU-145 = system: DU-145
NCI/ADR-RES = system: NCI/ADR-RES
PC-3 = system: PC-3
MOLT-4 = system: MOLT-4
A549 = system: A549
LOX IMVI = system: LOX IMVI
HL-60 = system: HL-60

Measured: GI50

Cc1nnc2sc(Cl)nn12
inactive: SNB-75 45.3 µM | KM12 14.5 µM | NCI-H460 18.5 µM | OVCAR-3 19 µM | SK-MEL-28 19.4 µM | BT-549 17.7 µM | SNB-19 44.8 µM | MDA-N 20.2 µM | IGROV-1 16.4 µM | OVCAR-5 23 µM | U-251 16.4 µM | K562 8.05 µM | DU-145 34.4 µM | NCI/ADR-RES 51.5 µM | PC-3 17.2 µM | MOLT-4 5.65 µM | A549 26.1 µM | LOX IMVI 10 µM

CCC(C)[C@H](NC(=O)[C@H](Cc1ccccc1)NC(=O)N(CC)c1ccccc1)C(=O)N[C@@H](CC(C)C)C(=O)OC (stereo partly drawn)
inactive: SNB-75 70.5 µM | KM12 22 µM | OVCAR-3 24.8 µM | SK-MEL-28 40.3 µM | BT-549 33.5 µM | SNB-19 35.4 µM | MDA-N 45.1 µM | IGROV-1 20.4 µM | OVCAR-5 > 100 µM | U-251 38.5 µM | DU-145 33.9 µM | NCI/ADR-RES > 100 µM | PC-3 35.3 µM | MOLT-4 10.7 µM | A549 52.5 µM | LOX IMVI 30.9 µM

CCOC(=O)c1nnsc1N/N=C\c1ccc([N+](=O)[O-])cc1
inactive: SNB-75 44.5 µM | KM12 > 100 µM | NCI-H460 > 100 µM | OVCAR-3 > 100 µM | SK-MEL-28 > 100 µM | BT-549 > 100 µM | SNB-19 70.1 µM | MDA-N > 100 µM | IGROV-1 > 100 µM | OVCAR-5 > 100 µM | U-251 > 100 µM | K562 > 100 µM | DU-145 > 100 µM | NCI/ADR-RES > 100 µM | PC-3 > 100 µM | MOLT-4 > 100 µM | A549 > 100 µM

COc1cc2oc(-c3ccc4c(c3)OCO4)c(OC)c(=O)c2c(OC)c1OC
inactive: SNB-75 27.2 µM | KM12 > 100 µM | NCI-H460 > 100 µM | OVCAR-3 > 100 µM | SK-MEL-28 > 100 µM | BT-549 38.7 µM | SNB-19 44.3 µM | HL-60 83.2 µM | MDA-N > 100 µM | IGROV-1 67.9 µM | OVCAR-5 > 100 µM | U-251 38.2 µM | K562 > 100 µM | DU-145 > 100 µM | NCI/ADR-RES > 100 µM | PC-3 > 100 µM | MOLT-4 > 100 µM | A549 > 100 µM | LOX IMVI > 100 µM

S=C(NCc1ccccc1)c1nc[nH]c1C(=S)NCc1ccccc1
inactive: SNB-75 6.12 µM | KM12 6.07 µM | NCI-H460 4.06 µM | OVCAR-3 6 µM | SK-MEL-28 12.4 µM | BT-549 13.3 µM | SNB-19 5.4 µM | HL-60 7.69 µM | MDA-N 7.74 µM | IGROV-1 5.08 µM | OVCAR-5 6.98 µM | U-251 5.87 µM | K562 4.4 µM | DU-145 9.27 µM | NCI/ADR-RES 3.41 µM | PC-3 7.82 µM | MOLT-4 4.85 µM | A549 3.89 µM | LOX IMVI 4.72 µM

O=c1[nH]nc(Cc2ccc(Cl)cc2)n1Nc1ccccc1
inactive: SNB-75 48.8 µM | KM12 > 100 µM | NCI-H460 > 100 µM | OVCAR-3 > 100 µM | SK-MEL-28 > 100 µM | BT-549 > 100 µM | SNB-19 > 100 µM | MDA-N > 100 µM | IGROV-1 > 100 µM | OVCAR-5 > 100 µM | U-251 > 100 µM | K562 > 100 µM | DU-145 4.94 µM | NCI/ADR-RES > 100 µM | PC-3 > 100 µM | MOLT-4 > 100 µM | A549 > 100 µM | LOX IMVI > 100 µM

O=c1[nH]nc(Cc2c[nH]c3ccccc23)o1
inactive: KM12 > 100 µM | OVCAR-3 > 100 µM | SK-MEL-28 > 100 µM | BT-549 > 100 µM | SNB-19 > 100 µM | HL-60 > 100 µM | MDA-N > 100 µM | IGROV-1 > 100 µM | OVCAR-5 > 100 µM | U-251 > 100 µM | K562 > 100 µM | DU-145 > 100 µM | NCI/ADR-RES > 100 µM | PC-3 > 100 µM | MOLT-4 > 100 µM | A549 > 100 µM | LOX IMVI > 100 µM

C[C@@H]1CCC2C(C)(C)C(/C=C\C=O)C3(C)OC213 (stereo partly drawn)
inactive: SNB-75 29.1 µM | KM12 36.1 µM | NCI-H460 42 µM | OVCAR-3 33.4 µM | SK-MEL-28 44 µM | BT-549 34.8 µM | SNB-19 45.4 µM | MDA-N 26 µM | IGROV-1 24.6 µM | OVCAR-5 24.5 µM | U-251 28.6 µM | K562 33.6 µM | DU-145 29.1 µM | NCI/ADR-RES 30 µM | PC-3 41.2 µM | MOLT-4 31.8 µM | A549 > 100 µM

CN(C)Cc1cc(/C=C/C(=O)c2ccc(Br)cc2)cc(CN(C)C)c1O
inactive: SNB-75 12.5 µM | KM12 13.4 µM | NCI-H460 19.3 µM | OVCAR-3 20.8 µM | SK-MEL-28 17.1 µM | BT-549 15.1 µM | SNB-19 20.3 µM | HL-60 6.84 µM | MDA-N 17.1 µM | IGROV-1 8.95 µM | OVCAR-5 35.2 µM | K562 25.1 µM | DU-145 15.7 µM | NCI/ADR-RES 36.6 µM | PC-3 26.6 µM | MOLT-4 9.95 µM | A549 29.2 µM

O=C1NC(=S)NC(=O)C1C(c1ccc(Cl)cc1)C1C(=O)NC(=S)NC1=O.c1ccncc1
inactive: KM12 > 100 µM | NCI-H460 > 100 µM | OVCAR-3 > 100 µM | SK-MEL-28 > 100 µM | BT-549 > 100 µM | SNB-19 > 100 µM | HL-60 > 100 µM | MDA-N > 100 µM | IGROV-1 > 100 µM | OVCAR-5 > 100 µM | U-251 > 100 µM | K562 > 100 µM | DU-145 > 100 µM | NCI/ADR-RES > 100 µM | PC-3 > 100 µM | MOLT-4 > 100 µM | A549 > 100 µM | LOX IMVI > 100 µM

CC(C)(C)OC(=O)NCCCCC(NC(=O)c1ccccc1)C(N)=O (stereo not drawn)
inactive: SNB-75 > 100 µM | KM12 > 100 µM | NCI-H460 > 100 µM | OVCAR-3 > 100 µM | SK-MEL-28 > 100 µM | BT-549 > 100 µM | SNB-19 > 100 µM | MDA-N > 100 µM | OVCAR-5 > 100 µM | U-251 > 100 µM | K562 54.7 µM | DU-145 > 100 µM | NCI/ADR-RES > 100 µM | PC-3 > 100 µM | MOLT-4 46.6 µM | A549 > 100 µM | LOX IMVI > 100 µM
